According to patent US11590163B2, “Iron-fortified food composition” (SOCIETE DES PRODUITS NESTLE S.A., priority 2017, dated 2023):

Key:
[1] = Colour change in iron-fortified bouillon (CIELAB ΔEab*); type: physicochemical; settings: chicken bouillon containing curcumin, approx. 5.5 mg iron per 6.55 g powder, reconstituted in 250 mL boiling water, 60° C. min. 30 minutes; vs bouillon with no iron
Procedure: Commercial Maggi Chicken Bouillon (Nestle Nigeria) containing curcumin was iron fortified by the addition of iron (III) complexes from Example 1, as well as ferrous sulphate (Dr. P. Lohmann GmbH KG) Ref1, and […] (Dr. P. Lohmann GmbH KG) Ref2. The amounts were chosen to provide approximately 5.5 mg of iron per 6.55 g of bouillon powder. A further sample without iron fortification was also prepared in the same manner. All samples were reconstituted in 250 mL of boiling water and kept at 60° C. for a minimum of 30 minutes.
Colour measurements were performed in 2.6×1 cm quartz cuvettes using an XRite ColorEye 7000A colorimeter. The colorimeter was set up with a D65 light source, 10 degree observer angle, specular component included and Large area View (LAV). The colour difference between the beverage with no iron salt and the iron-fortified beverages was measured for each material and expressed as ΔEab* using the CIELAB colour scale (Table 2).

[2] = Human stable-isotope iron bioavailability study (erythrocyte incorporation); type: in vivo; settings: healthy adult women
Procedure: Clinical trials were performed on fortified chicken bouillon and fortified chicken bouillon with corn flour to simulate inhibitory conditions. The trial was performed by ETH Zurich (Switzerland). The study was a controlled, single blind, single centre, and randomized cross-over trial in 22 healthy adult women, with each woman serving as their own control. Each participant consumed 6 different types of investigational products: bouillon respectively bouillon with maize porridge fortified either with PA:^58Fe:HCP, ^54FeSO4, (Ref1-labelled) or ^57FePP (Ref2-labelled). The PA:^58Fe:HCP complex was prepared as Example 1 sample 9 apart from the use of ^58Fe. The order of test meal administration was randomly assigned. […]
Fractional iron absorption (FIA) was calculated based on the measured shift of iron isotope ratios in the blood 14 days after the test meal administrations, from the blood samples collected on days 1, 17 and 35. […] The amounts of ^54Fe, ^57Fe and ^58Fe in the blood were calculated on the principle of isotope dilution by considering that iron isotopic labels are not mono-isotopic. Circulating iron was calculated based on blood volume and hemoglobin concentration. Blood volume was indirectly measured based on height and weight and calculated using the formula proposed by Brown et al [E. Brown et al., The Journal of clinical investigation, 41:21, 82-90.(1962)]. […]

Row | Compound | Δ E [1] | fractional iron absorption ([2]; in bouillon plus maize meal rich in phytate) | fractional iron absorption ([2]; in bouillon)
1 | O=S(=O)([O-])[O-].[Fe+2] [Ref1, ferrous sulphate] | 15.2 |  | 
2 | O=S(=O)([O-])[O-].[54Fe+2] [^54FeSO4] |  | 3.6% | 24.6%
